Earlier results on 2 compounds are cited in patent US20050214224A1, “Lipid formulations for spontaneous drug encapsulation” (Nektar Therapeutics, priority 2003, published 2005).

For the data set the following is noted: hydrated state; lipid excipient.

In the case of `CCCCCCCCCCCCCC(=O)OC[C@H](COP(=O)([O-])OCC[N+](C)(C)C)OC(=O)CCCCCCCCCCCCC` [DMPC, dimyristoylphosphatidylcholine], the “hydrated liquid transition temperature” value is 23.5 °C.

Regarding `CCCCCCCCCCCCCCCC(=O)OC[C@H](COP(=O)([O-])OCC[N+](C)(C)C)OC(=O)CCCCCCCCCCCCCCC` [DPPC, dipalmitoylphosphatidylcholine], the “hydrated liquid transition temperature” value was 42 °C.
